Assays:
[1] = test system: spotted spurge; assay: Test E pre-/postemergence herbicide test; assay type: in vivo, Euphorbia maculata
Text: Seeds of plant species selected from bipinnate beggarticks (Bidens bipinnata L.), hairy beggarticks (Bidens radiata Thuill.), bermudagrass (Cynodon dactylon (L.) Pers.), Surinam grass (Urochloa decumbens (Staph) R. D. Webster, previously named Brachiaria decumbens Stapf), large crabgrass (Digitaria sanguinalis (L.) Scop.), green foxtail (Setaria viridis (L.) P. Beauv.), goosegrass (Eleusine indica (L.) Gaertn.), johnsongrass (Sorghum halepense (L.) Pers.), kochia (Kochia scoparia (L.) Schrad.), pitted morningglory (Ipomoea lacunosa L.), purple nutsedge (Cyperus rotundus L.), common ragweed (Ambrosia elatior L.), mustard (Brassica nigra (L.) W. D. J. Koch), guineagrass (Panicum maximum Jacq.), dallisgrass (Paspalum dilatatum Poir.), barnyardgrass (Echinochloa crus-galli (L). P. Beauv.), southern sandbur (Cenchrus echinatus L.), common sowthistle (Sonchus oleraceous L.), prickly sida (Sida spinosa L.), Italian ryegrass (Lolium multiflorum Lam.), common purslane (Portulaca oleracea L.), broadleaf signalgrass (Brachiaria platyphylla (Griseb.) Nash), common groundsel (Senecio vulgaris L.), common chickweed (Stellaria media (L.) Vill/Cyr.), tropical spiderwort (Commelina benghalensis L.), annual bluegrass (Poa annua L.), downy bromegrass (Bromus tectorum L.), itchgrass (Rottboellia cochinchinensis (L.) L.f.), quackgrass (Elytrigia repens (L.) Nevski), Canada horseweed (Erigeron Canadensis L.), field bindweed (Convolvulus arvensis L.), spotted spurge (Euphorbia maculata L.), common mallow (Malva sylvestris (=s silvestris) L.), and Russian thistle (Salsola kali L. ssp. Ruthenica (Iljin) Soo) were planted and treated preemergence with test chemicals formulated in a non-phytotoxic solvent mixture which included a surfactant.
At the same time, plants selected from these weed species were treated with postemergence applications of some of the test chemicals formulated in the same manner. […] Treated plants and controls were maintained in a greenhouse for 12 to 14 days, after which time all species were compared to controls and visually evaluated. […]

[2] = test system: wild mustard; assay: Test F pre-/postemergence herbicide test; assay type: in vivo, Sinapis arvensis
Text: Seeds of plant species selected from annual blugrass (Poa annua L.), blackgrass (Alopecurus myosuroides Huds.), catchweed bedstraw (Gallium aparine L.), common chickweed (Stellaria media (L.) Vill./Cyr.), downy bromegrass (Bromus tectorum L.), green foxtail (Setaria viridis (L.) Beauv.), Italian ryegrass (Lolium multiflorum Lam.), kochia (Kochia scoparia (L.). Schrad.), lambsquarters (Chenopodium album L.), littleseed canarygrass (Phalaris minor Retz.), pigweed (Amaranthus retroflexus L.), Russian thistle (Salsola kali L. ssp. Ruthenica (Iljin) Soo), wild buckwheat (Polygonum convolvulus L.), wild mustard (Sinapis arvensis L.), wild oat (Avena fatua L.), windgrass (Apera spica-venti (L.) Beauv.), winter barley (Hordeum vulgare L.), and wheat (Triticum aestivum L.) were planted and treated preemergence with test chemicals formulated in a non-phytotoxic solvent mixture which included a surfactant.
At the same time, plants selected from these crop and weed species were treated with postemergence applications of some of the test chemicals formulated in the same manner. Plants ranged in height from 2 to 18 cm (1- to 4-leaf stage) for postemergence treatments. Treated plants and controls were maintained in a greenhouse for 12 to 14 days, after which time all species were compared to controls and visually evaluated. Plant response ratings, summarized in Table F, are based on a scale of 0 to 100 where 0 is no effect and 100 is complete control. A dash (-) response means no test result.

[3] = test system: velvetleaf (ABUTH); assay: Test J Compounds 2 and 6 alone and in combination with other herbicides, foliage spray; assay type: in vivo, Abutilon theophrasti; set-up: key: 0 = no effect, 100 = complete control; conditions: applied alone
Text: Colby's Equation was used to calculate the expected additive herbicidal effect of the mixtures of Compound 6 with Harmony® Extra (i.e. a 2:1 mixture by weight of thifensulfuron-methyl and tribenuron-methyl). […]
Seeds of test plants consisting of barnyardgrass (ECHCG; Echinochloa crus-galli (L.) Beauv.), blackgrass (ALOMY; Alopecurus myosuroides Huds.), Surinam grass (BRADC; Urochloa decumbens (Staph) R. D. Webster, previously named Brachiaria decumbens Stapf), cocklebur (XANST, Xanthium strumarium L.), corn (ZEAMD, Zea mays L. cv. ‘Pioneer 33G26’), large crabgrass (DIGSA, Digitaria sanguinalis (L.) Scop.), giant foxtail (SETFA, Setaria faberi Herrm.), lambsquarters (CHEAL, Chenopodium album L.), morningglory (IPOCO, Ipomoea coccinea L.), pigweed (AMARE, Amaranthus retroflexus L.), velvetleaf (ABUTH, Abutilon theophrasti Medik.) wheat (TRZAS, Triticum aestivum L. cv. ‘Recital’) and wild oat (AVEFA, Avena fatua L.) were planted in Redi-Earth® planting medium (Scotts Company, 14111 Scottslawn Road, Marysville, Ohio 43041) comprising spaghnum peat moss and vermiculite. […] Also listed in Table J are the expected effects for the mixtures calculated using Colby's Equation.

## CCNC(=O)c1ccnc(NC(=O)c2cc(C(C)(C)C)nn2CC)c1 [Compound 152]
[1]; Postemergence, 500 g ai/ha, scale 0 to 100
  Plant response rating, Spurge, Spotted: 95
[1]; Preemergence, 125 g ai/ha, scale 0 to 100
  Plant response rating, Spurge, Spotted: 100
[1]; Preemergence, 500 g ai/ha, scale 0 (no effect) to 100 (complete control)
  Plant response rating, Spurge, Spotted: 100

## CCn1nc(C(C)(C)C)cc1C(=O)Nc1cc(C(=O)OC(C)C)c(F)cc1F [Compound 248]
[2]; Postemergence, 31 g ai/ha
  Plant response rating (0-100), Mustard, Wild: 30
[2]; Postemergence, 62 g ai/ha
  Plant response rating (0-100), Mustard, Wild: 40
[2]; Postemergence, 125 g ai/ha
  Plant response rating (0-100), Mustard, Wild: 60
[2]; Postemergence, 250 g ai/ha
  Plant response rating (0-100), Mustard, Wild: 60
[2]; Preemergence, 31 g ai/ha
  Plant response rating (0-100), Mustard, Wild: 40
[2]; Preemergence, 62 g ai/ha
  Plant response rating (0-100), Mustard, Wild: 50
[2]; Preemergence, 125 g ai/ha
  Plant response rating (0-100), Mustard, Wild: 50
[2]; Preemergence, 250 g ai/ha
  Plant response rating (0-100), Mustard, Wild: 50

## CCn1nc(C(C)(C)C)cc1C(=O)Nc1cc(C(=O)N(C)C)ccc1F [Compound 6, N-[5-[(dimethylamino)carbonyl]-2-fluorophenyl]-3-(1,1-dimethylethyl)-1-ethyl-1H-pyrazole-5-carboxamide]
[3]; 62 g a.i./ha
  ABUTH Obsd.: 27
[3]; 125 g a.i./ha
  ABUTH Obsd.: 47
